Results as given in patent US6919043B2, “Method of sterilization for container, apparatus using therefor and heat treatment for container” (Dai Nippon Printing Co., Ltd., priority 2002, dated 2005).
Like-named read-outs stand apart in the source and are kept apart here.

Test system: Bacillus subtilis spore
Conditions: rinsing 3 sec, log(adhesion bacilli/survival bacilli)
Method: Sterilization process was performed, changing the conditions of a detail according to the following procedure for PET bottle (bottle made from a polyethylene terephthalate) with a capacity of 500 ml.
The hot blast 3 was supplied to the interior of the bottle per minute 0.1 m from the nozzle with a bore of 10 mm, and the preheating of the bottle was carried out. The temperature of hot blast was set as 105° C.-125° C. near the nose of the nozzle, and the amount of insertions into the bottle of the nozzle was set as 30 mm. Simultaneously, the hot blast of 85° C. was turned and sprayed on the lip portion of a bottle by the flow rate of 3 per minute 0.1 m from the nozzle with a bore of 50 mm. In addition, the number of nozzles for the lip portion heating was two to one bottle. The blasting time of the hot blast from each nozzle was set up in 3 seconds. The temperature in the bottle after the hot blast supplying had reached 50° C.
The bottle was left for 0.5-3.5 seconds after the mist supplying. Then, the nozzle was inserted into the bottle and hot blast was blown for 1 second. The bore of the nozzle, the amount of insertions of the nozzle, and the temperature and the flow rate of the hot blast were the same as the preheating.
The bottle was left for 1-3.5 second after hot blast blowing in. Then, the bottle was inverted and was inserted the a nozzle a nozzle with a bore of 6 mm in the interior, and the bottle was rinsed for aseptic water which is heated by 70° C. for 3 seconds. The flow rate of aseptic water was 8.5 L/min.
Moreover, a part of process was omitted when sterilization process was performed.
About each of each sterilization conditions, five bottles with the Bacillus subtilis spore of 103, 104, and 105 was sterilized, the trypto-soy bouillon medium was distributed aseptically in the bottle, and the existence of culture and sterilization was evaluated. The bacterial number of survivals was computed by the most probable number (MPN: most probable number) in probability theory from the test result in each sterilization conditions, and the following formula estimated the sterilization effect in quest of the opposite numeric value of the number of adhesion bacilli, and the number of survival bacilli.
Sterilization effect=log (the number of adhesion bacilli/the number of survival bacilli).

Q: How did the Sterilization effect (Condition 1: preheating 50 °C, mist 35 μl, leaving 3.5 sec, hot blast Yes, standing 1.0 sec) turn out when `OO` [hydrogen peroxide] was run?
A: Its Sterilization effect is 6.5.

Q: What about the Sterilization effect (Condition 2: preheating 50 °C, mist 25 μl, leaving 3.5 sec, hot blast Yes, standing 1.0 sec) of the same compound?
A: Its Sterilization effect is 5.5.

Q: And the Sterilization effect (Condition 3: preheating 50 °C (neck portion not heated from the outside), mist 20 μl, leaving 3.5 sec, hot blast Yes, standing 1.0 sec)?
A: Its Sterilization effect is 5.0.

Q: And the Sterilization effect (Condition 4: preheating 50 °C, mist 15 μl, leaving 3.5 sec, hot blast Yes, standing 1.0 sec)?
A: The Sterilization effect was 4.5.

Q: And the Sterilization effect (Condition 5: preheating 50 °C (neck portion heated from the exterior), mist 20 μl, leaving 3.5 sec, hot blast Yes, standing 1.0 sec)?
A: The Sterilization effect was 5.5.

Q: What about the Sterilization effect (Condition 6: preheating No, mist 40 μl, leaving 3.5 sec, hot blast Yes, standing 1.0 sec) of the same compound?
A: Its Sterilization effect is 3.0.

Q: What about the Sterilization effect (Condition 7: preheating No, mist 20 μl, leaving 3.5 sec, hot blast Yes, standing 1.0 sec) of the same compound?
A: The Sterilization effect was under 2.

Q: What about the Sterilization effect (Condition 8: preheating 50 °C, mist 30 μl, leaving 0.5 sec, hot blast Yes, standing 3.5 sec) of the same compound?
A: The Sterilization effect was 3.0.

Q: What about the Sterilization effect (Condition 9: preheating 50 °C, mist 20 μl, leaving 0.5 sec, hot blast Yes, standing 3.5 sec) of the same compound?
A: Its Sterilization effect is under 2.

Q: And the Sterilization effect (Condition 10: preheating 50 °C, mist 20 μl, leaving 3.5 sec, hot blast No, standing 1.0 sec)?
A: Its Sterilization effect is 4.0.

Q: And the Sterilization effect (Condition 11: preheating 50 °C, mist 15 μl, leaving 3.5 sec, hot blast No, standing 1.0 sec)?
A: Its Sterilization effect is 3.0.
